Data published in patent US20180009764A1, “METHOD FOR TREATING MACROPHAGE MIGRATION INHIBITORY FACTOR (MIF)-IMPLICATED DISEASES AND CONDITIONS WITH IODO PYRIMIDINE DERIVATIVES” (UNIVERSITY OF LOUISVILLE RESEARCH FOUNDATION, INC., priority 2009, published 2018).

Legend:
in vitro = in vitro ADME; conditions: human, plasma, Human Plasma Protein Binding % Bound
Source text: Plasma protein binding was ascertained using dialysis equilibrium methods known in the art.

Du 145 = assay: Inhibition of tumor cells proliferation (CellTiter Glo); format: cell-based; conditions: Homo sapiens, 72 hours
Description: Inhibition of the proliferation of tumor cells was investigated in vitro in several tumor cell lines. Cells of the desired tumor cell line were plated at 2×10^5 cells/ml in 96 well plates. Twice the indicated concentrations of the compounds of the invention were added to cells the following day in an equal volume of media. 72 hours later, cells were lysed and subjected to ATP determination using the CellTiter Glo-Luminescent Cell Viability Assay kit (Promega, Madison, Wis.). Experiments were done in triplicate. Results for the inhibition of cells proliferation are reported as IC50 (the concentration leading to a 50% inhibition of proliferation of the cell population) and are listed in Table 6. FIGS. 3 and 4 show bar graphs comparing the IC50s of specific embodiments of compounds of the invention across multiple tumor cell lines.

[1] = Pharmacokinetics parameters in rats; format: in vivo; conditions: rat, plasma; for Vd: intravenous, read-out: Volume of distribution; for clearance: iv, after i.v. administration; for half-life: read-out: Terminal plasma half-life (converted)
Description: The pharmacokinetic parameters of several compounds were investigated in rodents. Both oral and iv administration were investigated in rats. Blood samples were collected over time; plasma was analyzed using an LC/MS-MS method. Pharmacokinetic parameters were calculated using Win-NonLin. Terminal plasma half-lives were 7.10 hr for ACT-MIF-001, 1.66 hr for ACT-MIF-002, and 1.50 hr for ACT-MIF-003. […] The volume of distribution values were 72666 mL/kg for ACT-MIF-001, 2118 mL/kg for ACT-MIF-002, and 1926 mL/kg for ACT-MIF-003.

MDR1-MDCK monolayers = assay: MDR1-MDCK cell permeability and transport; format: in vitro ADME; conditions: for Efflux: class in words
Description: (§1) Cell permeability and transport mechanisms in Caco-2 and MDR1-MDCK monolayers experiments were performed in triplicate in the apical-to-basolateral and basolateral-to-apical direction using […]® wells containing either Caco-2 or MDR1-MDCK monolayers. A modified Hanks buffer pH 7.4 was used in both reservoir and receiver wells with the addition of 1% BSA in the receiver side. Confluent monolayers were used and their integrity was verified using reference compounds (Atenolol as a low permeability reference compound and Propanolol as a high permeability reference compound). A sample in the basolateral and apical sides was taken after 2 hours and the concentration measured by LC/MS-MS.

Caco-2 monolayers = assay: Caco-2 cell permeability and transport; format: in vitro ADME; design: Caco-2 Permeability Papp B-A / Caco-2 Permeability Papp A-B: unit not given here; conditions: for Caco-2 Permeability Papp A-B: apical-to-basolateral
Description: as §1

[2] = tested on: Chick Chorioallantoic Membrane (CAM); assay: Chick chorioallantoic membrane (CAM) assay, o ring; format: in vivo; conditions: for Blood Vessel Density: o ring; for Anti-angiogenic properties: CAM assay, in words
Description: 8 groups with 10 embryos in each group were used in the experiment described below. Fresh fertile eggs were incubated for 3 days in a standard egg incubator at 37° C. for 3 days. On Day 3, eggs were cracked under sterile conditions and embryos were placed into 20×100 mm plastic plates and cultivated at 37° C. in an embryo incubator with a water reservoir on the bottom shelf. Air was continuously bubbled into the water reservoir using a small pump so that the humidity in the incubator is kept constant. On Day 6, a sterile silicon “o” ring was placed on each CAM and test compound dissolved in 0.5% methylcellulose was placed into each “o” ring in a sterile hood. Paclitaxel was used as a positive control. Embryos were returned to the incubator after addition of test material. Control embryos received 10 μL of vehicle alone. On Day 8, embryos were removed from the incubator and kept at room temperature while blood vessel density were determined under each “o” ring using an image capturing system at a magnification of 160×. The blood vessel density was measured using an angiogenesis scoring system in that arithmetic numbers 0 to 5 (or exponential numbers 1 to 32) are used to indicate number of blood vessels present at the treatment sites on the CAM. Number 5 represents the highest density and 0 represents no angiogenesis. The percent of inhibition at each dosing site was calculated using the score recorded for that site divided by the mean score obtained from the appropriate control samples for each individual experiment. The percent of inhibition for each dose of a given compound was calculated by pooling all results obtained for that dose from 8-10 embryos.

MIF = molecular target: T1, MIF (Homo sapiens, UniProt P14174); assay: MIF cell lysate enzymatic inhibition; format: biochemical; conditions: cell lysates
T1 construct: the enzymatic activity of MIF present in cell lysates; endogenous in cells
T1 sequence (P14174 2-115 limits assumed): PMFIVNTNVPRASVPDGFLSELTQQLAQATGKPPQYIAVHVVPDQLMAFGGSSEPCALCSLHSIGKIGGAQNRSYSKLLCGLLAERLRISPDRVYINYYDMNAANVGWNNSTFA
Description: Normal or transformed cell lysates can be used to determine the concentration inhibiting the enzymatic activity of MIF present in cell lysates. Cells are cultured in the appropriate media to the required number of cells, collected, and lysed. Compounds to be characterized are solubilized in DMSO and serial dilutions are performed in order to obtain a range of concentrations including complete and no quantifiable inhibition.

pancreatic tumor model = assay: Efficacy study in a pancreatic tumor model; format: in vivo; conditions: daily 40 mg/kg IP; for Survival: FIG. 10
Description: The activity of the compounds of the invention was investigated in a pancreatic tumor model using an experiment similar to the one described in EXAMPLE 69. Compounds ACT-MIF-002 and ACT-MIF-003 were dosed daily at 40 mg/kg via IP administration.
Lumbar regions of the control and treated groups were excised and sent for histopathological evaluation. […] In the example shown in FIG. 11, bone marrow of the vehicle treated mice is consistent with bone metastases (1) with evidence of surrounding skeletal muscle metastases from invading marrow tumor cells (2 and 3).

[3] = Microsomal stability in human liver microsomes; format: in vitro ADME; conditions: both, human, microsomes, pH 7.4
Description: Stability in human liver microsomes was tested over […] at 37° C. using pooled mixed gender human liver microsomes. Liver microsomes were prepared at 1.0 mg/ml of microsomal protein in a 100 mM potassium phosphate pH 7.4 buffer with 1 mM NADPH. The media was incubated at 37° C. with the compound in solution in DMSO. The concentration of the compound was followed by LC/MS-MS as a function of time. Samples were assayed at t=0, 30, 60 and 120 minutes. Testosterone was used as a positive control. The same experiment was performed with mouse liver microsomes instead of human liver microsomes.

[4] = Caco-2 cell permeability and transport; format: in vitro ADME; design: Caco-2 Permeability Papp B-A / Caco-2 Permeability Papp A-B: unit not given here; conditions: human, Caco-2, pH 7.4
Description: as §1

Structure (SMILES)	fraction unbound (in vitro)	IC50 (Du 145) [µM]	Vd [1] [L/kg]	clearance [1] [mL/min/kg]	half-life [1] [h]	Brain penetration classification (MDR1-MDCK monolayers)	P-gp Substrate (MDR1-MDCK monolayers)	Efflux (MDR1-MDCK monolayers)	Caco-2 Permeability Class (Caco-2 monolayers)	Caco-2 Permeability Papp A-B (Caco-2 monolayers; pH 7.4, 2 hours)	Blood Vessel Density ([2]; 0.3 nM per CAM)	Blood Vessel Density ([2]; 3 nM per CAM)	Blood Vessel Density ([2]; 30 nM per CAM)	Anti-angiogenic properties [2]	IC50 (MIF) [µM]	Body weight and clinical signs of toxicity (pancreatic tumor model)	Metastatic tumor burden (pancreatic tumor model)	Survival (pancreatic tumor model)	Metabolic Stability in Human Microsomes % Remaining ([3]; 0 h) [%]	Metabolic Stability in Human Microsomes % Remaining ([3]; 1 h) [%]	also measured
COc1ccc(-c2cc(I)ncn2)c(F)c1 [ACT-MIF-002, 4-Iodo-6-(2-fluoro-4-methoxyphenyl)pyrimidine]	0.021	24.9	2.12	132	1.66	Low	No	High	Low	0.2	9.4 ± 2.4	8.6 ± 2.6	4.4 ± 1.3	high anti-angiogenic properties	0.07	no body weight loss and no clinical signs of toxicity	limited the metastatic tumor burden	significant impact on survival	100	<2	Caco-2 Efflux (Caco-2 monolayers): 1.7; Bone metastases, histopathology of lumbar region (pancreatic tumor model; FIG. 11): no evidence of bone metastases
Fc1ccccc1-c1cc(I)ncn1 [ACT-MIF-003, 4-Iodo-6-(2-fluorophenyl)pyrimidine]	0.038	16.5	1.93	197	1.5	High	No	High	High	2.1	11.6 ± 1.2	4.2 ± 1.2	4.1 ± 0.7	high anti-angiogenic properties	0.2	no body weight loss and no clinical signs of toxicity	limited the metastatic tumor burden	significant impact on survival	100	57	efflux ratio at 2 h [4]: 1.2; Caco-2 Permeability Papp B-A (Caco-2 monolayers; basolateral-to-apical, pH 7.4, 2 hours): 2.6
